Measurements: patent US20120142766A1, “SUBSTITUTED 1,3-DIOXANES AND THEIR USES” (EVOLVA SA, priority 2007, published 2012)
One block for each compound: values may come before it.

Experiments:
KKA^y mice = test: KKAy mice on high fat diet, 14-day oral gavage BID; format: in vivo, mouse
Protocol: 52 male KKA^y mice are obtained commercially (e.g., from Clea Japan) at an age of 6 weeks and put on a high fat diet upon arrival. Individual mice were housed in IVC Type II cages during both the acclimatization and the experimental phase. Both food (high fat diet) and water are supplied ad libitum.
1 animal per cage. […] Lights on at 06:00 a.m. Temperature: 21-25° C. Relative humidity target range: 55-60%.
Mice were randomized into treatment groups according to their 4-h fasting blood glucose.
4 hours after the last administration, non-fasting conditions.
Gamma irradiated high fat diet is commercially available (e.g., Research Diets, Inc. New Brunswick, N.J. (Product # D12266BI)).
Blood is collected into heparin containing glass capillaries which are subsequently centrifuged in a “Haematokrit 24” centrifuge (Hettich) at 15′200×g for 10 minutes at room temperature to obtain the hematocrit value.
The following serum parameters are determined on a COBAS INTEGRA 800 auto analyzer (Roche Diagnostics, Switzerland) using the reagents and protocols provided by the supplier.
All measurements are made on Day 14 of administration, except for the food intake and body weight measurements that are made on Day 12.

[1] = system: arterial thrombosis in a mouse model; test: Arterial thrombosis mouse model (FeCl3 on femoral artery); format: in vivo
Protocol: The solutions are diluted 3.3-fold in saline and 100 μl/25 g is injected. Thus, the above-mentioned doses of 100 and 300 mg/kg of compound correspond to final doses of 30 and 100 mg/kg.
During the experiments, a soluble salt of the drug is provided (potassium salt of compound C), diluted in saline. Of this formulation, 100 μl/25 g is injected i.v. in the tail vein (dose of 100 mg/kg).
Solutions are injected (100 μl/25 g body weight) i.v. in the tail vein over 2 min to obtain doses of each compound of 30 mg/kg and 100 mg/kg. Aspirin is given the same way at a dose of 200 mg/kg. Clopidogrel is administered by oral gavage at a dose of 20 mg/kg at 6-7 hours prior to the experiment. The animals assigned to each group are matched for body weight. Mice are typically 8-10 weeks old males and are in a 100% Swiss genetic background.
The flow in each image is expressed as a percentage of that at the contralateral side, and data are averaged for all 120 images to determine total flow. The same analysis is performed for 10 min intervals (which gives essentially the same information as the area under the curve). […] Flow before treatment is recorded as 100%, and that in occluded arteries as 0%. At the end of the experiment, blood is collected on 0.01M citrate by heart puncture for determination of blood cell counts. Plasma is prepared by centrifugation and stored at −20° C. for determination of drug levels.
Statistical analysis for differences between two groups is performed by non-parametric Student t-test. Occlusion times >30 min were considered equal to 30 min for statistical analysis. Significance is set at p<0.05.

[2] = system: New Zealand Rabbit platelet rich plasma; test: TP receptor platelet aggregation, rabbit (U-46619-induced); format: cell-based
Protocol: Thrombosis Research 33:277-288.
TP Receptor Platelet Aggregation—Rabbit:
New Zealand Rabbit (2.75±0.25 kg) platelet rich plasma
Assay: Inhibition of 1.5 μM U-46619-induced platelet aggregation Incubation Time, Temp: 5 minutes at 37° C. Incubation Buffer Trisodium Citrate (0.13 M)-treated platelet rich plasma
Time of Assessment: 5 minutes
Quantification Method Optical Density Change

[3] = target: T1, Thromboxane receptor (TP) (Homo sapiens, UniProt P21731); test: TP receptor radioligand binding ([3H] SQ-29548); conditions: Human recombinant HEK-293 cells
T1 construct: expressed in transfected cells; host or cells: HEK-293
T1 sequence (P21731 1-343): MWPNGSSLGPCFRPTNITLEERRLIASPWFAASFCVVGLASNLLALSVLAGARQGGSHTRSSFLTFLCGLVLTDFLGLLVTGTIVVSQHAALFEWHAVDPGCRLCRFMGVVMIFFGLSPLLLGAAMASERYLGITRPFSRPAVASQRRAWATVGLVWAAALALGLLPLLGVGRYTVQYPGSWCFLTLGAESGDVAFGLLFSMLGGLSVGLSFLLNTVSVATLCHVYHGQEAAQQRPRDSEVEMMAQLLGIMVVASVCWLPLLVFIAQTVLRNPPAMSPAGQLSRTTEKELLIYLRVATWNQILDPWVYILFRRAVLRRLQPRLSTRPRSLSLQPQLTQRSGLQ
Protocol: The compounds were tested on radioligand binding assays for thromboxane receptor binding essentially as described by Hedberg et al. (1988) J. Pharmacol. Exp. Ther. 245:786-792 and Saussy et al. (1986) J. Biol. Chem. 261: 3025-3029 according to the following:
TP Receptor Radioligand Binding Studies:
Human recombinant HEK-293 cells,
Incubation Time, Temp: 30 minutes at 25° C.
Incubation Buffer: 50 mM Tris-HCl, pH 7.4, 154 mM NaCl
Non-Specific Ligand: 1 μM SQ-29548
The data were transformed to semi-log and then analysed using non-linear regression to a four-parameter dose-response curve Y=Bottom+(Top−Bottom)/(1+10̂((LogEC50−X)*HillSlope)) using the log(agonist) vs. response—Variable slope function of GraphPad Prism software (http://graphpad.com/help/prism5/prism5help.html?usitignonlinear_regression_step_by_s.htm).

[4] = target: T2, Human Recombinant (E. coli) PPARgamma (Homo sapiens, UniProt P37231); test: PPAR gamma binding assay ([3H]-rosiglitazone); conditions: [3H]-rosiglitazone 10 nM; read-out: PPARγ binding IC50
T2 construct: host or cells: E. coli
T2 sequence (P37231 1-505): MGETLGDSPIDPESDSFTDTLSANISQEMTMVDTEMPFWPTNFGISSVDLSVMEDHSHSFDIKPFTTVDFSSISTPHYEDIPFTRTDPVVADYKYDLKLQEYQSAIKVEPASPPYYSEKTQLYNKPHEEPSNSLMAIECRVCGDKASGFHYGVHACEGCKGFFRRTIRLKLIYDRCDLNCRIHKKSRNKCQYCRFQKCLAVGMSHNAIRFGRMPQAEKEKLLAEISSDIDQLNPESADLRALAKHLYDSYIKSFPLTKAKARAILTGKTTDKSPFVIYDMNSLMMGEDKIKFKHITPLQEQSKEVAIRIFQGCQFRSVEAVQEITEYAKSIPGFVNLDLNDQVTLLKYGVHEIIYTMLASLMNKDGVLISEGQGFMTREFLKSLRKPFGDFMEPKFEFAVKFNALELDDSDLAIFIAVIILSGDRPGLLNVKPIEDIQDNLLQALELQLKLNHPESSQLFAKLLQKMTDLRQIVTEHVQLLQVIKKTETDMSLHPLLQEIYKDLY
Protocol: Incubation: 120 min. at 4° C.
The results are expressed as a percent of control specific binding ((measured specific binding/control specific binding)×100) obtained in the presence of the test compounds. The IC50 values (concentration causing a half-maximal inhibition of control specific binding) and Hill coefficients (nil) were determined by non-linear regression analysis of the competition curves generated with mean replicate values using Hill equation curve fitting (Y=D+[(A−D)/(1+(C/C50)nH)], where Y=specific binding, D=minimum specific binding, A=maximum specific binding, C=compound concentration, C50=IC50, and nH=slope factor). This analysis was performed using a software developed at Cerep (Hill software) and validated by comparison with data generated by the commercial software SigmaPlot® 4.0 for Windows® (© 1997 by SPSS Inc.). The inhibition constants (Ki) were calculated using the Cheng Prusoff equation (Ki=IC50/(1+(L/KD)), where L=concentration of radioligand in the assay, and KD=affinity of the radioligand for the receptor).

Thromboxane synthase = target: T3, Thromboxane synthase (Homo sapiens, UniProt P24557); test: Human platelet thromboxane synthase assay; format: biochemical
T3 construct: Human Platelet Thromboxane Synthase Assay; from tissue; host or cells: human platelets
T3 sequence (P24557 1-533): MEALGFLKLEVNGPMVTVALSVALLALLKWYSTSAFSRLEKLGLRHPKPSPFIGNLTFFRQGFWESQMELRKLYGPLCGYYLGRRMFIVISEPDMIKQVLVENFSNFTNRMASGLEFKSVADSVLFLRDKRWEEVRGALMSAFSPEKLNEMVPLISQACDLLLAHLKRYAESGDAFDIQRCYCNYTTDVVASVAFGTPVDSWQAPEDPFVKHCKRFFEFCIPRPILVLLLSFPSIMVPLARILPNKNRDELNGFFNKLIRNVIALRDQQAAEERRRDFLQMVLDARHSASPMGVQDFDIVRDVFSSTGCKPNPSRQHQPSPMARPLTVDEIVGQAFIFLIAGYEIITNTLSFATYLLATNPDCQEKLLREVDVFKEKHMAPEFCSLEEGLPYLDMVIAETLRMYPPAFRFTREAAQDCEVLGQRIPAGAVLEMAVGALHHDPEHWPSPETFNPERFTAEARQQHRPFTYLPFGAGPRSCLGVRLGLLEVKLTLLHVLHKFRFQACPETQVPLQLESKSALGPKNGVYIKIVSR
Protocol: The compounds were tested for thromboxane synthase inhibition essentially as described by Borsch-Haubold A G, Pasquet S, Watson S P. (1998) Direct inhibition of cyclooxygenase-1 and -2 by the kinase inhibitors SB 203580 and PD 98059. […] 1. Imidazole derivatives. J Med. Chem. (10):1139-48 according to the following:
Pre-incubation time, temp: 15 minutes at 25° C. Incubation time, temp: 3 minutes at 25° C.
Incubation Buffer: 10 mM Tris-HCl, pH 7.4
Quantification Method: EIA quantification of TxB2

[5] = 14-day BID, enoic acid 53 mg/kg, rosiglitazone 5 mg/kg, Compounds 3 and 13 dose not stated
[6] = Oryctolagus cuniculus, Platelet, 1.5 μM U-46619-induced
[7] = 5 mg/kg BID oral gavage, Day 12, mean ± S.E.M.
[8] = 5 mg/kg BID oral gavage, Day 14, mean ± S.E.M.

Heart weight (in words) (KKA^y mice; [5]): no effect on heart weight
Compound: O=C(O)CC/C=C\C[C@@H]1COC(c2ccc(Nc3ccccc3)cc2)O[C@@H]1c1ccccc1O (mixture of isomers) [Compound 3, (Z)-6-(4-(2-Hydroxyphenyl)-2-(4-(phenylamino)phenyl)-1,3-dioxan-5-yl)hex-4-enoic acid]
Body weight (in words) (KKA^y mice; [5]): do not alter body weight | FFA (in words) (KKA^y mice; [5]): decreases the FFA | HbA1c levels (in words) (KKA^y mice; [5]): decreased

Compound: CC(=O)Oc1ccccc1C(=O)O [Aspirin]
Occlusion time ([1]; 200 mg/kg i.v.): no effect on the occlusion time | Total blood flow ([1]; 200 mg/kg i.v.): no significant effect on the total blood flow

Compound: COC(=O)[C@H](c1ccccc1Cl)N1CCc2sccc2C1 [Clopidogrel]
Total blood flow ([1]; 20 mg/kg oral gavage 6-7 hours prior): significantly improved total blood flow

inhibition at 10 µM [3]: 100% | IC50 [4]: 2100 nM | inhibition at 5 µM (Thromboxane synthase; 5 μM): 39%
Compound: O=C(O)CC/C=C\C[C@@H]1COC(c2ccccc2Oc2ccc(F)cc2)O[C@@H]1c1ccccc1O (stereo partly shown) [Compound 4]
inhibition at 10 µM [2, 6]: 100%

inhibition at 10 µM [3]: 102% | IC50 ([3]; 5 nM [3H] SQ-29548): 11 nM | Ki ([3]; 5 nM [3H] SQ-29548): 7.2 nM | IC50 (Thromboxane synthase): 840 nM | Thromboxane synthase Human platelet Inhibition (%) at 5 μM (Thromboxane synthase; 5 μM): 76% | inhibition at 5 µM (Thromboxane synthase; 5 μM): 75% | Inhibition of thromboxane synthase (in words) (Thromboxane synthase; Table 2): inhibitors of thromboxane synthase
Compound: O=C(O)CC/C=C\C[C@@H]1COC(c2ccccc2-c2ccccc2)O[C@@H]1c1ccccc1O (stereo partly shown) [Compound 10]
inhibition at 30 µM ([2]; Oryctolagus cuniculus, Platelet, 30 μM, 1.5 μM U-46619-induced): 100% | Inhibition of platelet aggregation (in words) ([2]; Table 2): potent inhibitors of platelet aggregation | Occlusion time ([1]; dose not given): prolongs the occlusion time | Total blood flow ([1]; dose not given): improves total blood flow

inhibition at 10 µM [3]: 98% | IC50 [4]: 21000 nM | inhibition at 5 µM (Thromboxane synthase; 5 μM): 12%
Compound: COc1ccccc1C1OC(c2ccccc2Cl)OCC1C/C=C\CCC(=O)O (stereo not shown) [Compound D, (Z)-6-(-2-(2-chlorophenyl)-4-(2-methoxyphenyl)-1,3-dioxan-5-yl)hex-4-enoic acid]
inhibition at 10 µM [2, 6]: 33%

IC50 (Thromboxane synthase): 10100 nM | inhibition at 10 µM (Thromboxane synthase; 10 μM): 53%
Compound: COc1ccc(C(=O)NCc2cccnc2)cc1C(=O)NCc1cccnc1 [Picotamide]
inhibition at 100 µM ([2]; Oryctolagus cuniculus, Platelet, 100 μM, 1.5 μM U-46619-induced): 36%

Food Intake (KKA^y mice; [7]): 4.5 ± 0.6 g/day | ALP (KKA^y mice; [8]): 26.0 ± 1.7 dU/L | Heart weight (KKA^y mice; [8]): 226.2 ± 6.9 mg | Hematocrit (KKA^y mice; [8]): 40.3 ± 1.5% | Heart weight (in words) (KKA^y mice; [5]): increased
Compound: CN(CCOc1ccc(CC2SC(=O)NC2=O)cc1)c1ccccn1 (stereo not shown) [Rosiglitazone]
Body Weight (KKA^y mice; [7]): 49.5 ± 1.0 g | ALT (KKA^y mice; [8]): 8.9 ± 0.9 dU/L | AST (KKA^y mice; [8]): 10.1 ± 0.9 dU/L | FFA (KKA^y mice; [8]): 1.3 ± 0.1 mM | Fructosamine (KKA^y mice; [8]): 0.35 ± 0.03 mM | HDL (KKA^y mice; [8]): 3.6 ± 0.2 mM | HbA1C (KKA^y mice; [8]): 7.8 ± 0.4 % | Insulin (KKA^y mice; [8]): 17.9 ± 4.2 µg/L | Serum Glucose (KKA^y mice; [8]): 18.8 ± 2.2 mM | TG (KKA^y mice; [8]): 1.0 ± 0.2 mM | Total Cholesterol (KKA^y mice; [8]): 4.0 ± 0.4 mM | Body weight (in words) (KKA^y mice; [5]): increased
